Series [1] has as its target T1, Uracil reductase (dihydropyrimidine dehydrogenase, EC 1.3.1.2) (Bos taurus, UniProt Q28007).
T1 construct: (dihydropyrimidine dehydrogenase, EC 1.3.1.2) purified from bovine live; from tissue; host or cells: bovine liver ('bovine live' [sic])
T1 sequence (Q28007 1-1025): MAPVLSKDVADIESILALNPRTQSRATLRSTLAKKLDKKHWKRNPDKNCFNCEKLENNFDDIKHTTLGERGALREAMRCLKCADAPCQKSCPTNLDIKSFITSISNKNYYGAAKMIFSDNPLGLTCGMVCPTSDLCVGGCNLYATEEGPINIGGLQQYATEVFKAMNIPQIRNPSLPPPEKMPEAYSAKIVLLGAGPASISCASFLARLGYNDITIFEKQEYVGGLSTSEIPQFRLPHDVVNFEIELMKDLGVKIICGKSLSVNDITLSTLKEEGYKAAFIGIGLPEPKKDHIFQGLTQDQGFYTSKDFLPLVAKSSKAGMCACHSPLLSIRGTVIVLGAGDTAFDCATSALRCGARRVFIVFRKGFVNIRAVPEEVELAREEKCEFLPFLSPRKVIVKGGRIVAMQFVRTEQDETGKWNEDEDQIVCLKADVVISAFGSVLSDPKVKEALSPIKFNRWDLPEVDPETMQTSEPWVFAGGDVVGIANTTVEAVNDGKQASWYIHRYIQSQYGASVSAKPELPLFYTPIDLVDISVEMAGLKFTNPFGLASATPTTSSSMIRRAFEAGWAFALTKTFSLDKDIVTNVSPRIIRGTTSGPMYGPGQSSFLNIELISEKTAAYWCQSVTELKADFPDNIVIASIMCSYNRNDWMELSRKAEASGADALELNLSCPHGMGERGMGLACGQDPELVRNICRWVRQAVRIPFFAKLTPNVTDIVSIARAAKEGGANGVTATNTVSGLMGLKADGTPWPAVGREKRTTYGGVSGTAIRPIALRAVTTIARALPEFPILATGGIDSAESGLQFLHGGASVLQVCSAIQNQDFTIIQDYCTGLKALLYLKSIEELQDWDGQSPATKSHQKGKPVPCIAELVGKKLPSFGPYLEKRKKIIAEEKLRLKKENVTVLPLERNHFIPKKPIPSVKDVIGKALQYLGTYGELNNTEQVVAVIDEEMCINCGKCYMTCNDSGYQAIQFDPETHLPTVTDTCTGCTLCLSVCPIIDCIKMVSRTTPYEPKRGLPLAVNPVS
The experiment in a line: Determination of uracil reductase inactivation. Conditions: for inhibition at 100 µM: 0.5 h; for relative first-order rate constants for inactivation of enzyme (parenthetical values): fractional activity as a function of time of incubation of 50 μM inactivator with enzyme. Format: biochemical, bovine. The protocol:
Determination of Uracil Reductase Inactivation
Uracil reductase (1 μM) (dihydropyrimidine dehydrogenase, EC 1.3.1.2) purified from bovine live was incubated with 100 μM inactivator and 5 mM dithiothreitol (enzyme reductant) at 37° for 30 minutes in 0.05 M Tris-HCL at pH 8.0. The enzyme and inactivator were diluated 100-fold into the assay buffer, which contained 200 μM NADPH, 200 μM thymine and 1 μM dithiothreitol in Tris-HCl at pH 8.0. The velocity of the enzyme was determined spectrophotometrically. These velocities have been corrected for NADPH oxidase activity, which was less than 10% of the rate of thymine-dependent oxidation of NADPH. The % inactivation of the enzyme was equal to 100% minus the percent of enzymatic activity remaining. Enzyme incubated without inhibitor was stable under these conditions. Parenthetical values are the relative first-order rate constants for inactivation of enzyme determined from similar experiments where the fractional activity was measured as a function of the time of incubation of 50 μM inactivator with enzyme.

For the next series, the system named is Male mice. As to the kind of experiment: Protection from zidovudine toxicity in mice. It is filed as in vivo. Here is the method: Male mice were doses p.o. with 1000 mg/kg/day of zidovudine for 30 days either alone, or 1.5 hours after dosing with 2 mg/kg/day of 5-ethynyluracil (5-EU). Other groups of mice (a) were dosed with 2 mg/kg/day of 5-ethynyluracil alone; and (b) served as controls, receiving neither zidovudine nor 5-ethynyluracil. Levels of haematocrit, haemoglobin and red blood cells were determined.

The mark [2] stands for this setting: 1 μM enzyme incubated with 100 μM inactivator and 5 mM dithiothreitol, 37°, 30 minutes, pH 8.0, then diluted 100-fold into assay buffer, read-out: % Inactivation.
The mark [3] stands for this setting: male mice, p.o., 30 days, zidovudine 1000 mg/kg/day, 5-EU 2 mg/kg/day, given 1.5 hours before zidovudine in the combination.

Like-named read-outs stand apart in the source and are kept apart here.

Usually melting point stands for the temperature of the solid-liquid transition.

Consider `O=c1[nH]cc(Br)c(=O)[nH]1` [5 -bromouracil, 5-bromouracil], for which, in series [1] (pH 8, read-out: % Inactivation), the inhibition at 100 µM is 75%.

With `C=C(Cl)c1c[nH]c(=O)[nH]c1=O` [5-(1-chlorovinyl)uracil], the inhibition at 100 µM in series [1] (setting [2]) came out at 100%. In addition, in series [1], the “relative first-order rate constants for inactivation of enzyme (parenthetical values)” value (“relative first-order rate constants” below) is given as “(5)”.

Consider `O=c1[nH]cc(C(Cl)=CBr)c(=O)[nH]1` [5-(2-bromo-1-chlorovinyl)uracil], for which the inhibition at 100 µM in series [1] (setting [2]) stood at 68%.

`O=c1[nH]cc(C#CBr)c(=O)[nH]1` [5-bromoethynyluracil]: the inhibition at 100 µM in series [1] (setting [2]) was 100%. For the same compound, the “relative first-order rate constants” value in series [1] was “(8)”.

For `O=c1[nH]cc(C=CBr)c(=O)[nH]1` [5-bromovinyluracil], the inhibition at 100 µM in series [1] (setting [2]) stood at 93%.

As to `N#Cc1c[nH]c(=O)[nH]c1=O` [5-cyanouracil], in series [1] (setting [2]), the inhibition at 100 µM was determined as 100%. Further, the “relative first-order rate constants” value in series [1] is recorded as “(14)”.

In the case of `C#Cc1c[nH]c(=O)[nH]c1=O` [5-ethynyluracil, 5-Ethynyluracil], the inhibition at 100 µM in series [1] (setting [2]) was found to be 100%. In addition, the “relative first-order rate constants” value in series [1] is on record as “(100)”. In the series with Male mice (setting [3]), the HEMATOCRIT stood at 45.9%, the HEMOGLOBIN is 15.1 g/dL and the RED BLOOD CELLS was determined as 9.1 million/µL. Further, the “prevention of red-blood cell anaemia induced by treatment with zidovudine” value in the series with Male mice (mice) is “at least partially prevented”.

For `CCCCC#Cc1c[nH]c(=O)[nH]c1=O` [5-hex-1-ynyluracil], the inhibition at 100 µM in series [1] (setting [2]) was found to be 90%.

As to `CC#Cc1c[nH]c(=O)[nH]c1=O` [5-propynyluracil, 5-Propynyluracil], the melting point is 275 to 280 °C (dec.). In addition, the inhibition at 100 µM in series [1] (setting [2]) came out at 100%. Further, the “relative first-order rate constants” value in series [1] is reported as “(8)”.

`O=c1[nH]cc(C(F)(F)F)c(=O)[nH]1` [5-trifluorouracil]: in series [1] (1 μM enzyme incubated with 100 μM inactivator and 5 mM dithiothreitol, 37°, 30 minutes, pH 8.0, then diluted 100-fold into assay buffer), the “% Inactivation” value is 75%.

Consider `C=Cc1c[nH]c(=O)[nH]c1=O` [5-vinyluracil], for which the inhibition at 100 µM in series [1] (setting [2]) was found to be 86%.

Turning to `O=c1[nH]cc(I)c(=O)[nH]1` [Example 5-iodouracil, 5-iodouracil], in series [1] (setting [2]), the inhibition at 100 µM was found to be 100%. Further, in series [1], the “relative first-order rate constants” value is on record as “(4)”.
